According to US20170295779A9, “COMPOSITION COMPRISING A PESTICIDE AND AMIDE” (BASF SE, priority 2013, published 2017):

How the values were obtained:
barley (cultivar Lawina) = assay: Phytotoxicity greenhouse test, spray of carboxylic acid amide on barley; format: in vivo; conditions: 3-4 leaf stage, spray 200 l/ha comprising 1500 ml carboxylic acid amide/ha, visual score vs plants treated with water only
Description: Phytotoxicity in accordance with the present invention is determined by an assay where a spray comprising water (aqua dest.) and carboxylic acid amide (200 l/ha comprising 1500 ml carboxylic acid amide/ha) is prepared and applied on plants of barley (cultivar […]) being in 3-4 leaf stage at a water application rate of 1.5 l/ha. The experimental period lasts for 10 days. During this time, the experimental plants receive optimum watering, with nutrients being supplied via the water used for watering. The phytotoxicity is evaluated by awarding scores to the treated plants in comparison to untreated plants, i.e. treated with water only. The evaluation scale ranges from 0% to 100% phytotoxicity. The evaluation is done by visual examination. 0% phytotoxicity means that there are no differences between treated and untreated plants. Thus, no phytotoxicity in accordance with the present invention means that the treated plants to not have plant injury and there is no difference between treated and untreated plants. Low phytotoxicity in accordance with the present invention means that only 1 to 10% of the treated plants have plant injury as compared to untreated plants. For the greenhouse tests, barley (cultivar […]) was sown and cultivated in standard soil (type P, fine) for 3 weeks. The spray mixtures were applied with a minicompressor (4 times) in a laboratory fume hood on plants being in 3-4 leaf stage. A spray comprising water (aqua dest.) and dibutylpropionamide from Example 1 (200 l/ha comprising 1500 ml dibutylpropionamide/ha) was prepared and applied at a water application rate of 1.5 l/ha. The experimental period lasted for 10 days. During this time, the experimental plants received optimum watering, with nutrients being supplied via the water used for watering. The phytotoxicity was evaluated by assessing scores to the treated plants in comparison to untreated plants, i.e. treated with water only (see Table 1). The evaluation scale ranges from 0% to 100% phytotoxicity. The evaluation was done by visual examination. Thus, 0% phytotoxicity means that there were no differences between treated and untreated plants. […] A rating of 0% phytotoxicity means no crop injury. […] A rating of 100% means the complete destruction of all plants. […] Thus, less than 10% of the plants were affected when said carboxylic acid amides were applied on the plants in a dose of 1500 ml/ha. […] Thus, carboxylic acid amides wherein the N,N-alkyl groups are having more than two carbon atoms seem to have no or almost no phytotoxic effect on the plants and can therefore be used in agricultural compositions for reducing the phytotoxicity in such compositions.

[1] = Determination of the max. solubility of fungicides in carboxylic acid amides; format: physicochemical
Description: The respective fungicide was dissolved in the solvent of interest so that a supersaturated solution was obtained. The deposit was filtered off. The concentration of the fungicide in the supernatant was determined via quantitative 1H-NMR spectroscopy.

Q: Which “Phytotoxicity [%] 10 days after treatment” value (from here on “Phytotoxicity [%] 10 days”) (barley (cultivar Lawina)) does the source give for `CCC(=O)N(CC)CC` [Diethylpropionamide, N,N-diethyl-propionamide] here?
A: 6%

Q: Which “Phytotoxicity [%] 10 days” value (barley (cultivar Lawina)) does the source give for `CCCCN(CCCC)C(=O)CC` [Dibutylpropionamide, N,N-dibutyl-propionamide] here?
A: 0%

Q: And the “Solubility [%] Fluxapyroxad” value [1]?
A: 28%

Q: Which “Phytotoxicity [%] 10 days” value (barley (cultivar Lawina)) does the source give for `CCC(=O)N(C)C` [Dimethylpropionamide, N,N-dimethyl-propionamide, reference compound] here?
A: 43%

Q: What about the “Phytotoxicity [%] 10 days” value (barley (cultivar Lawina); listed as dimethylpropionamide) of the same compound?
A: up to 43%

Q: For `CCCCCCCC(=O)N(CCCC)CCCC` [C8-dibutylamide, N,N-dibutyl-octanamide], which “Phytotoxicity [%] 10 days” value (barley (cultivar Lawina)) is on record?
A: 5%
